Where two headings read alike, the source gives them in different places.
Key:
[1] = molecular target: Serotonin 5-HT2B (Homo sapiens, UniProt P41595); assay: PDSP binding screen
[2] = molecular target: T1, Muscarinic M5 (Homo sapiens, UniProt P08912); assay: PDSP binding screen; conditions: for inhibition at 10 µM: read-out: Ki (nM) or % inhibition at 10 µM: M5
T1 sequence (P08912 1-532): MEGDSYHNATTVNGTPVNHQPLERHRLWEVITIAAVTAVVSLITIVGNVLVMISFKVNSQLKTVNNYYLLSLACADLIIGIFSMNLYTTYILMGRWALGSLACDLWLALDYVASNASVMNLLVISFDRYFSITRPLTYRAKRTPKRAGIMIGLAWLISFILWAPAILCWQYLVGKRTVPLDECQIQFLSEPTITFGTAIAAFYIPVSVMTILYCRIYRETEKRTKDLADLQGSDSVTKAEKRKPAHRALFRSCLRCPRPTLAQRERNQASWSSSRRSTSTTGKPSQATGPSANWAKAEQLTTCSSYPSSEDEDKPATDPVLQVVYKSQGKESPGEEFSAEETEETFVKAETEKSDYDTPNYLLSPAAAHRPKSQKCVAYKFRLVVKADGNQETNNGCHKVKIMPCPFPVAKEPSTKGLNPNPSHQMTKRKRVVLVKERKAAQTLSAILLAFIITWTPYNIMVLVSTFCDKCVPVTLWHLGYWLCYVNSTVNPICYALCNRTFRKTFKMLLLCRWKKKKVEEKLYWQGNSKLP

[3] = molecular target: Serotonin 5-HT7A (Homo sapiens, UniProt P34969); assay: PDSP binding screen; conditions: read-out: Ki (nM) or % inhibition at 10 µM: 5-HT7A
Sequence of Serotonin 5-HT7A (P34969 1-445 isoform P34969-2): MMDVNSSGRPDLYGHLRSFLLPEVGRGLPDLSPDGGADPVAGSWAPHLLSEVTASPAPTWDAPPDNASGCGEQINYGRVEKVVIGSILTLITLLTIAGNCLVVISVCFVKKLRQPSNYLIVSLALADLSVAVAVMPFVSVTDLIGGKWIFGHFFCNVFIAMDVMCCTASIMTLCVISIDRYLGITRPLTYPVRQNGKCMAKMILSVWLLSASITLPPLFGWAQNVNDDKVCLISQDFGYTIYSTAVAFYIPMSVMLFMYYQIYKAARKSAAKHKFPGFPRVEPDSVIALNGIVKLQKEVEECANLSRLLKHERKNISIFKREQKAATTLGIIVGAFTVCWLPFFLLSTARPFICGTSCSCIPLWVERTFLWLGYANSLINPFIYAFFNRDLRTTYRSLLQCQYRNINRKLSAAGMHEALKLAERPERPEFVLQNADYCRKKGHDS

[4] = molecular target: Adrenergic beta1 (Homo sapiens, UniProt P08588); assay: PDSP binding screen
Sequence of Adrenergic beta1 (P08588 whole entry): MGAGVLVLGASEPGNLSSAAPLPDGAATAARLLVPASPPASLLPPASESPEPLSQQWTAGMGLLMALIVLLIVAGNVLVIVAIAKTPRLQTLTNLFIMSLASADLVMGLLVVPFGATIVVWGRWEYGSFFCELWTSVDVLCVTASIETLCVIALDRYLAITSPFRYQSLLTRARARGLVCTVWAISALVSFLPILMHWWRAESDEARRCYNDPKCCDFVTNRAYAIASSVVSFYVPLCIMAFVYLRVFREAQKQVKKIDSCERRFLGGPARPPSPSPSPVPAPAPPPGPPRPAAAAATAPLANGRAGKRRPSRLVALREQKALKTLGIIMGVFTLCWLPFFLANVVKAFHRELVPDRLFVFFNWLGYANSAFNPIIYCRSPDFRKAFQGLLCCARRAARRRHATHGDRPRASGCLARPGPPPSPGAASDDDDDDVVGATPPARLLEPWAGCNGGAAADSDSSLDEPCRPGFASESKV

[5] = molecular target: Dopamine D3 (Homo sapiens, UniProt P35462); assay: PDSP binding screen
Sequence of Dopamine D3 (P35462 whole entry): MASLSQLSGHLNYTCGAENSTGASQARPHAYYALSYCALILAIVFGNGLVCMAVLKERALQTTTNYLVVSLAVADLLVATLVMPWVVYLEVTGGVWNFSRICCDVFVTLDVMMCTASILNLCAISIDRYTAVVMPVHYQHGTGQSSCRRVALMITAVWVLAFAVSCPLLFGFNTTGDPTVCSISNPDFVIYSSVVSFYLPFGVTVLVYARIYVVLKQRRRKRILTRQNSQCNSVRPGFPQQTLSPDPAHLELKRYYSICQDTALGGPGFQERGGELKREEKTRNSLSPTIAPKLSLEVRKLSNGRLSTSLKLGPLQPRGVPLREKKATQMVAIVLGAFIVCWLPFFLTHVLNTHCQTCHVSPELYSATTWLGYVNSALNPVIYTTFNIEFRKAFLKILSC

[6] = molecular target: T2, Serotonin 5-HT3 (Homo sapiens, UniProt P46098); assay: PDSP binding screen
T2 sequence (P46098 24-478): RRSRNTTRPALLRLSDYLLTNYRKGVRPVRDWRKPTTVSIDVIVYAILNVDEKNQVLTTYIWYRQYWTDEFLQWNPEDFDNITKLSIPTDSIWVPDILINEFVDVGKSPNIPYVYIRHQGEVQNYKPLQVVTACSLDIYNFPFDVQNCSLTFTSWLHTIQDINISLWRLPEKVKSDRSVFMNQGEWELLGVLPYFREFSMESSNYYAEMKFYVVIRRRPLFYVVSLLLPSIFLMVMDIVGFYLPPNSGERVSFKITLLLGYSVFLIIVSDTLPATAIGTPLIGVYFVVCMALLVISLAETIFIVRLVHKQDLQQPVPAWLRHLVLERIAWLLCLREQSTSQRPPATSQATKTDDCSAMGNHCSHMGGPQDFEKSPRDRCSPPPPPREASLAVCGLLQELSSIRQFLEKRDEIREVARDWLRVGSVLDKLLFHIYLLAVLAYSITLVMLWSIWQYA

[7] = molecular target: Benzodiazepine receptor (PBR) (Rattus norvegicus, UniProt P16257); assay: PDSP binding screen; conditions: for Ki (nM) or % inhibition at 10 µM: Benzodiazepine receptor (PBR): PDSP, HCl salts
[8] = molecular target: T3, human D2 receptors (Homo sapiens, UniProt P14416); assay: Radioligand binding assay with [125I]IABN, D2 receptor
T3 construct: expressed in transfected cells; host or cells: HEK293
T3 sequence (P14416 whole entry): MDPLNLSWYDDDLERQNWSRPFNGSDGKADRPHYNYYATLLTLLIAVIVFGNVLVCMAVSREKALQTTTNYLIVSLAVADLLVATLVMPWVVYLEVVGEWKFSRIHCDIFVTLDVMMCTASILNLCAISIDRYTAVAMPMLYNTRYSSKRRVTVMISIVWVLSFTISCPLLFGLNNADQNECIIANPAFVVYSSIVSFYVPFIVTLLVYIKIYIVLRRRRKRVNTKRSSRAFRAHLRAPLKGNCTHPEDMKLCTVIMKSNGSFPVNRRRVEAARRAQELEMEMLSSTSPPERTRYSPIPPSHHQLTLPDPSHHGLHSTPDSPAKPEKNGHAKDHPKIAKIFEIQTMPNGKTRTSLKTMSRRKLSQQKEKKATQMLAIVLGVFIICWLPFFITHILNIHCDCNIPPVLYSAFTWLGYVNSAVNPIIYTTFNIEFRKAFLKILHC
Method: Two different assays were used to evaluate the properties of the analogs described above. The receptor binding affinity was measured by radioligand binding assays using [^125I]IABN with D2 or D3 receptors highly expressed HEK293 cells. The functional activity of the analogs was determined using a β-arrestin recruitment assay. […] The results of the antagonist mode assay are reported as IC50 values.
Ki values for D2 and D3 receptors were measured using [^125I]IABN in human D2 and D3 receptors expressed in HEK cells, respectively. A filtration binding assay was used to characterize membrane-associated receptor binding properties. The details for the procedures were described in the literature.

[9] = molecular target: Histamine H4 (Homo sapiens, UniProt Q9H3N8); assay: PDSP binding screen; conditions: for inhibition at 10 µM: read-out: Ki (nM) or % inhibition at 10 µM: H4
Sequence of Histamine H4 (Q9H3N8 whole entry): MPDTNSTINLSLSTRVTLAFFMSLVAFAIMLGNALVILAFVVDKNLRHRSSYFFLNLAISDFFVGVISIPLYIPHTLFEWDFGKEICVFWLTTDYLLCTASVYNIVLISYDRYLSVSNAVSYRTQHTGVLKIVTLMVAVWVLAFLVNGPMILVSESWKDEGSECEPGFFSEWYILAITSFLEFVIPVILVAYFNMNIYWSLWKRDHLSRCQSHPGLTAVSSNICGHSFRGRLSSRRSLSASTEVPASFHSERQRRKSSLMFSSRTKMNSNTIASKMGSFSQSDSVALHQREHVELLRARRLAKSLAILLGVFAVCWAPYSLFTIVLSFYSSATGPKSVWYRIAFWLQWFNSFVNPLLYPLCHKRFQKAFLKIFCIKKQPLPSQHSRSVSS

[10] = molecular target: T4, Adrenergic alpha1B (Homo sapiens, UniProt P35368); assay: PDSP binding screen; conditions: for inhibition at 10 µM: read-out: Ki (nM) or % inhibition at 10 µM: alpha1B
T4 sequence (P35368 1-520): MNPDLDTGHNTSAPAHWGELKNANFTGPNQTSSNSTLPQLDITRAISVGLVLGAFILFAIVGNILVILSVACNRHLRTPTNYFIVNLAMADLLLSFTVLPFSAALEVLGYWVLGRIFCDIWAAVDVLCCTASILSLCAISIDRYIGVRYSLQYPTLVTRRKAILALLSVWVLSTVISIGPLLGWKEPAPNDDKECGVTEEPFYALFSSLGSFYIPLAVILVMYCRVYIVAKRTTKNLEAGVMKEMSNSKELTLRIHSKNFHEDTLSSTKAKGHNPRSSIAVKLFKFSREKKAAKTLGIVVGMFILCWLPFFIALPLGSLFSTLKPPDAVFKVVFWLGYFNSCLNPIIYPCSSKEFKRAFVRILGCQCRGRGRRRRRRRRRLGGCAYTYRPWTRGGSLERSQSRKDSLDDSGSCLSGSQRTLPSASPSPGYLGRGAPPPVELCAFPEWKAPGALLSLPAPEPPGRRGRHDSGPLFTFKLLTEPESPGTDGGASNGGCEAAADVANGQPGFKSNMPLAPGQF

[11] = molecular target: BZP Rat Brain Site; assay: PDSP binding screen; conditions: HCl salts
[12] = molecular target: Histamine H3 (Homo sapiens, UniProt Q9Y5N1); assay: PDSP binding screen; conditions: for inhibition at 10 µM: read-out: Ki (nM) or % inhibition at 10 µM: H3
Sequence of Histamine H3 (Q9Y5N1 whole entry): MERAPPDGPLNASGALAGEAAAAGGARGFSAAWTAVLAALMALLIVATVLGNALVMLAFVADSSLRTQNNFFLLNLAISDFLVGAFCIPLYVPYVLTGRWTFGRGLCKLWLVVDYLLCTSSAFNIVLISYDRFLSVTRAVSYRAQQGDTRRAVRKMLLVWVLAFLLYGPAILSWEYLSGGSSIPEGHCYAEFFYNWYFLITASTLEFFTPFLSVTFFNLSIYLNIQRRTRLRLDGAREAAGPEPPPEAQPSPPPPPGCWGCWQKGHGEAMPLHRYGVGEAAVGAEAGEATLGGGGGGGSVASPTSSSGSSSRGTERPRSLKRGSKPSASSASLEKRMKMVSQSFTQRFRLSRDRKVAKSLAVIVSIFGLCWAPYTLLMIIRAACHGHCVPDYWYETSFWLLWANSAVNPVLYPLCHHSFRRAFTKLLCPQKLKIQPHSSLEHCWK

[13] = molecular target: Serotonin 5-HT1B (Homo sapiens, UniProt P28222); assay: PDSP binding screen; conditions: for inhibition at 10 µM: read-out: Ki (nM) or % inhibition at 10 µM: 5-HT1B
Sequence of Serotonin 5-HT1B (P28222 whole entry): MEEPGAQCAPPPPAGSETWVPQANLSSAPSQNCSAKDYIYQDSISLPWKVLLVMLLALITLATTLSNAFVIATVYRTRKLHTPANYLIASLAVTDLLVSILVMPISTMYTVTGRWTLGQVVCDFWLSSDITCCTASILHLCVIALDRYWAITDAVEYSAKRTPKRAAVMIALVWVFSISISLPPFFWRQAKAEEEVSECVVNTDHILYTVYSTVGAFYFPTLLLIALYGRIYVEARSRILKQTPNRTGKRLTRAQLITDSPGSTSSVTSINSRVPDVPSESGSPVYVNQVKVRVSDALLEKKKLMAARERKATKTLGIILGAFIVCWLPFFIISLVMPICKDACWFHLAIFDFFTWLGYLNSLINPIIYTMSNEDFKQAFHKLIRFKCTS

[14] = molecular target: Adrenergic beta2 (Homo sapiens, UniProt P07550); assay: PDSP binding screen; conditions: for inhibition at 10 µM: read-out: Ki (nM) or % inhibition at 10 µM: beta2
Sequence of Adrenergic beta2 (P07550 whole entry): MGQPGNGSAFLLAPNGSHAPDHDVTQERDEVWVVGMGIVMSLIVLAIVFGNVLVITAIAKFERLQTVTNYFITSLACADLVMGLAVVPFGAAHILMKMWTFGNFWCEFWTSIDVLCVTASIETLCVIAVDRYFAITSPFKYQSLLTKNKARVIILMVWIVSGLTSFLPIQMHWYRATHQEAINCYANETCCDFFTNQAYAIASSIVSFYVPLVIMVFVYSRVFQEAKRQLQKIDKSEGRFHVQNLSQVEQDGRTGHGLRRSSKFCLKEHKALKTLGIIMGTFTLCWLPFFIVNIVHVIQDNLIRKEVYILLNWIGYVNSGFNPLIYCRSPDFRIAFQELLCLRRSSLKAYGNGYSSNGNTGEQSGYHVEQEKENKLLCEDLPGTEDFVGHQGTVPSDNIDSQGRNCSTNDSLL

[15] = [125I]IABN, D2 receptors expressed in HEK cells, mean ± SEM, three experiments, HCl salts, read-out: Ki ± SEM (nM) D2

Sequence of Serotonin 5-HT2B (P41595 whole entry): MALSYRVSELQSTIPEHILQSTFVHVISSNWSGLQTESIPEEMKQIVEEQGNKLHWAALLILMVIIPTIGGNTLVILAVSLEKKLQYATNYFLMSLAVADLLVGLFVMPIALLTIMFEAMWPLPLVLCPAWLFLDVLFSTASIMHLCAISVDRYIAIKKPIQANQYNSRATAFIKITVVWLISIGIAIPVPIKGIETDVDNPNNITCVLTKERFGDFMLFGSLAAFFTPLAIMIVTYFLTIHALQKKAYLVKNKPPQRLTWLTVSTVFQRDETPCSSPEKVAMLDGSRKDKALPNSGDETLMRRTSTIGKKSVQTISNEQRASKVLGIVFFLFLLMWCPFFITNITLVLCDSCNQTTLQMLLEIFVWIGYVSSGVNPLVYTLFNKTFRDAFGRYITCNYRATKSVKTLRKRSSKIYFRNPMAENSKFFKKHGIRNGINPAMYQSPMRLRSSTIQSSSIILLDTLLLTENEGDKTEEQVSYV

## CCN(CCCNC(=O)c1ccc(-c2ccncc2)cc1)CCNC(=O)c1cc(Br)cc(OC)c1OC [21c, 5-Bromo-N-(2-(ethyl(3-(4-(pyridin-4-yl)benzamido)propyl)amino)ethyl)-2,3-dimethoxybenzamide]
[1]
  Ki: 0.157 µM
[2]
  Ki: 2.39 µM
[3]
  inhibition at 10 µM: < 50%
[4]; read-out: Ki (nM) or % inhibition at 10 µM: beta1
  inhibition at 10 µM: < 50%
[5]
  Ki: 0.00036 µM
[6]
  Ki: 0.058 µM
[7]; read-out: Ki (nM) or % inhibition at 10 µM: Benzodiazepine receptor (PBR)
  inhibition at 10 µM: < 50%
[8]; [15]
  Ki: 107 ± 5 nM
[9]
  inhibition at 10 µM: < 50%
[10]
  inhibition at 10 µM: < 50%
[11]
  Ki (nM) or % inhibition at 10 µM: BZP Rat Brain Site: N/A (N/A; not active means less than 50% inhibition that was obtained in primary binding assay at 10 µM of the compound)
[12]
  Ki: 4.73 µM
[13]
  inhibition at 10 µM: < 50%
[14]
  inhibition at 10 µM: < 50%

## CCN(CCCNC(=O)c1ccc(-c2cccs2)cc1)CCNC(=O)c1cc(Br)cc(OC)c1OC [9a, 5-Bromo-N-(2-(ethyl(3-(4-(thiophen-2-yl)benzamido)propyl)amino)ethyl)-2,3-dimethoxybenzamide]
[1]
  Ki: 0.187 µM
[2]
  Ki: 5.04 µM
[3]
  inhibition at 10 µM: < 50%
[4]
  Ki: 5.9 µM
[5]
  Ki: 0.00083 µM
[6]
  Ki: 0.195 µM
[7]
  Ki: 1.45 µM
[8]
  Ki: 169 ± 4 nM
[9]
  Ki: 6.42 µM
[10]
  Ki: 2.19 µM
[11]
  Ki (nM) or % inhibition at 10 µM: BZP Rat Brain Site: N/A (N/A; not active means less than 50% inhibition that was obtained in primary binding assay at 10 µM of the compound)
[12]
  Ki: 5.58 µM
[13]
  Ki: 0.905 µM
[14]
  Ki: 0.669 µM

## CCN(CCCNC(=O)c1cn2ccccc2n1)CCNC(=O)c1cc(Br)cc(OC)c1OC [21e, N-(3-((2-(5-Bromo-2,3-dimethoxybenzamido)ethyl)(ethyl)amino)propyl)imidazo[1,2-a]pyridine-2-carboxamide]
[1]
  Ki: 0.443 µM
[2]
  inhibition at 10 µM: < 50%
[3]
  inhibition at 10 µM: < 50%
[4]
  Ki: 6.52 µM
[5]
  Ki: 0.00046 µM
[6]
  Ki: 0.148 µM
[7]
  Ki: 0.011 µM
  Ki (nM) or % inhibition at 10 µM: Benzodiazepine receptor (PBR): relatively high affinity
[8]; [15]
  Ki: 142 ± 16 nM
[9]
  inhibition at 10 µM: < 50%
[10]
  inhibition at 10 µM: < 50%
[11]
  Ki (nM) or % inhibition at 10 µM: BZP Rat Brain Site: N/A (N/A; not active means less than 50% inhibition that was obtained in primary binding assay at 10 µM of the compound)
[12]
  inhibition at 10 µM: < 50%
[13]
  inhibition at 10 µM: < 50%
[14]
  inhibition at 10 µM: < 50%

## CCCN(CCCNC(=O)c1ccc(-c2cccs2)cc1)CCNC(=O)c1cc(Br)cc(OC)c1OC [20a, 5-Bromo-2,3-dimethoxy-N-(2-(propyl(3-(4-(thiophen-2-yl)benzamido)propyl)amino)ethyl)benzamide]
[1]
  Ki: 0.17 µM
[2]
  inhibition at 10 µM: < 50%
[3]
  inhibition at 10 µM: < 50%
[4]
  Ki: 3.71 µM
[5]
  Ki: 0.00132 µM
[6]
  Ki: 0.103 µM
[7]
  Ki: 0.009 µM
  Ki (nM) or % inhibition at 10 µM: Benzodiazepine receptor (PBR): relatively high affinity
[8]; [15]
  Ki: 259 ± 23 nM
[9]
  Ki: 3.46 µM
[10]
  Ki: 1.4 µM
[11]
  Ki (nM) or % inhibition at 10 µM: BZP Rat Brain Site: N/A (N/A; not active means less than 50% inhibition that was obtained in primary binding assay at 10 µM of the compound)
[12]
  inhibition at 10 µM: < 50%
[13]
  Ki: 1.05 µM
[14]
  Ki: 5.83 µM
